From publication PMC5641942 (Physiological Reports, 2017)
Entries after “also recorded” stand apart in the source; their conditions may differ. Like-named read-outs stand apart in the source and are kept apart here.

Assays:
[1] = target: T1, PAT1 (Homo sapiens, UniProt Q7Z2H8); conditions: pH 6.0, 100 μmol/L taurine
Description: (§1) After the 5 min incubation, the isotope‐containing buffer solution was removed and the wells were washed three times with 500 μL ice‐cold HEPES‐buffer, pH 7.4. The cells were detached using 200 μL of 0.1% Triton X‐100, and transferred to scintillation plastic vials and 2 mL of scintillation cocktail was added.

[2] = target: T1, PAT1; conditions: donor pH 6.0, 100 μmol/L taurine, 20 mg/mL test substance
[3] = target: T2, TauT (Homo sapiens, UniProt P31641); assay: Taurine (52 nmol/L) uptake in Caco-2 cells at pH 7.4 in the presence of amino acids; type: cell-based; design: endogenous in cells; host or cells: Caco-2; conditions: pH 7.4, 0.052 μmol/L taurine
T2 sequence (P31641 1-620): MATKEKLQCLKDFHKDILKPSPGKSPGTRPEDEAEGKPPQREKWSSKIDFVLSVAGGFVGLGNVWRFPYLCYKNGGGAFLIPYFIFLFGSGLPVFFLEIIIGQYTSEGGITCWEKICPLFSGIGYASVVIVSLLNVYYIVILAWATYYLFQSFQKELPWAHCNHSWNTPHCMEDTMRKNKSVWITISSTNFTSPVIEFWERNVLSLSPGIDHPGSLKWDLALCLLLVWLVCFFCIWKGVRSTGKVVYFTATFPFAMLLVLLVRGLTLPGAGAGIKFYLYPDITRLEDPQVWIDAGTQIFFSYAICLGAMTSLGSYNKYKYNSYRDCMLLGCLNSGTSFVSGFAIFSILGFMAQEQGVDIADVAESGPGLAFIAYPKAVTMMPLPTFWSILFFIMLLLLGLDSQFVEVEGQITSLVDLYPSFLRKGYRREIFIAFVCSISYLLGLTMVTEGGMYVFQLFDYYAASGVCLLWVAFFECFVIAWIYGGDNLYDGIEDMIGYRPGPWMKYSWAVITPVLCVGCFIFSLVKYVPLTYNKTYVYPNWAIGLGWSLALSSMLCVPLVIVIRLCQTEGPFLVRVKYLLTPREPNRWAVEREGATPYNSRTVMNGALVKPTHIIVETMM
Source text: […]. […] […].

[4] = system: PAT1 and TauT; assay: Taurine (52 nmol/L) uptake in Caco-2 cells at pH 6.0 in the presence of amino acids; type: cell-based, human; conditions: pH 6.0, 0.052 μmol/L taurine
Description: as §1

[5] = target: T3, PAT1 (Rattus norvegicus, UniProt Q924A5); assay: Oral taurine pharmacokinetics with co-administered BCH or Pro and Sar; type: in vivo, male Sprague-Dawley rats; conditions: oral 30 mg/kg taurine, 200 mg/kg BCH
T3 construct: tissue Charles River Deutschland; host or cells: intestine of living male Sprague-Dawley rats (oral dosing)
Description: The pH was adjusted with NaOH or HCl to 7.40 ± 0.05.
The animals were acclimatized for a minimum of 5 days in groups of two and maintained on standard feed with free access to water. Prior to dosing, the animals were fasted for 16–20 h with free access to water.
Plasma was harvested immediately by 10 min of centrifugation at 4°C, 3600g (Multifuge 1 S‐R, Heraeus, Hanau, Germany) and stored in polypropylene tubes (Pony Vial, PerkinElmer, Waltham, MA, USA) at −20°C until analysed. At the end of the experiment, animals were sacrificed by spinal dislocation using a guillotine. Plasma samples were left to defrost and mixed with 4 mL of liquid scintillation cocktail. The samples were counted for 3 min on a scintillation counter from Tri‐Carb 2900TR.
Based on this V d1, volume of distribution in the central compartment 1; V d2, volume of distribution in the peripheral compartment 2; AUC, area under the curve; and K10, the elimination rate from the central department, were calculated using Phoenix® 6.3 version (Pharsight Corporation, A Certara Company, USA). […] C max and t max were found as mean values of the plasma concentration profiles within each group. […] The total clearance was calculated as dose divided by AUC.

[6] = target: T2, TauT; conditions: pH 7.4/7.4, 0.052 μmol/L taurine, 20 mg/mL test substance

T1 sequence (Q7Z2H8 whole entry): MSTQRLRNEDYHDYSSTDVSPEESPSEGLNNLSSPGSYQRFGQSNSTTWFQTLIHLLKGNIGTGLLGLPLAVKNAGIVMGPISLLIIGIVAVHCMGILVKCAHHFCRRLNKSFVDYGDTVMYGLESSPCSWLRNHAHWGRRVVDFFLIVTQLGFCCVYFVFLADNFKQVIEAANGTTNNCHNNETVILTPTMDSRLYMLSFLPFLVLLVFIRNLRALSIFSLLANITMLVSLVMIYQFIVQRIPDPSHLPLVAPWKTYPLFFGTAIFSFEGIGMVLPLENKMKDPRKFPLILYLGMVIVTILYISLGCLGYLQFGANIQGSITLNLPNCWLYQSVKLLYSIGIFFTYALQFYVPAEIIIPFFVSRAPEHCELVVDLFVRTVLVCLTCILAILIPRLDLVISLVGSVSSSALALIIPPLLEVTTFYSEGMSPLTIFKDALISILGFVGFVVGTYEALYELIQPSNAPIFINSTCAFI
T3 sequence (Q924A5 whole entry): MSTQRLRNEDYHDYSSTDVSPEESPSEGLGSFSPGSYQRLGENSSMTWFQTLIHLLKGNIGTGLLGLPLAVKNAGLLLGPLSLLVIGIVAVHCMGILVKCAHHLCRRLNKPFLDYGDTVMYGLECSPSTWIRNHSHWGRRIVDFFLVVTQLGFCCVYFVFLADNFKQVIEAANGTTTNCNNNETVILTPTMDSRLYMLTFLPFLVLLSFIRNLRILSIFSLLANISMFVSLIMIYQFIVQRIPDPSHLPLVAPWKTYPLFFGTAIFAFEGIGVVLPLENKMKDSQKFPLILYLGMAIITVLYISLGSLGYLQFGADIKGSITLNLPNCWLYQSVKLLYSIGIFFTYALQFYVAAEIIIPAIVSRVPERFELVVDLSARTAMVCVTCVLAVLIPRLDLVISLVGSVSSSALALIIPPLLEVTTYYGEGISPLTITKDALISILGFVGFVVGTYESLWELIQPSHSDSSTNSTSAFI

SMILES	effect on taurine uptake ([1]; 10 mmol/L test substance)	effect on taurine uptake ([1]; 20 mg/mL test substance)	effect on absorptive (A-B) permeability of taurine [2]	effect on taurine uptake ([3]; 10 mmol/L test substance)	effect on taurine uptake ([4]; 10 mmol/L test substance)	effect on taurine uptake ([4]; 20 mg/mL test substance)	effect on taurine plasma concentration versus time profile (AUC0‐tlast, t max, C max) [5]	effect on absorptive (A-B) permeability of taurine [6]	taurine uptake ([3]; 10 mmol/L test substance)	effect on taurine uptake ([3]; 20 mg/mL test substance)
NC1(C(=O)O)CC2CCC1C2 (centres unmarked) [BCH, 2‐Amino‐2‐norbornanecarboxylic acid]	not affected significantly	did not affect	did not alter	not affected	not affected	did not affect	similar; also recorded: did not have any significant effect	did not significantly decrease		
O=C(O)Cc1c[nH]cn1 [IAA, imidazole‐4‐acetic acid]	not affected significantly			significantly inhibited	significantly inhibited				approximately 10 % of the control uptake	
O=C(O)[C@@H]1CCCN1 [Pro, L‐proline]				not affected				did not significantly decrease		
CNCC(=O)O [Sar, sarcosine]				not affected				did not significantly decrease		decreased
